{"source": "patent US5155110A", "about": "“Fenamic acid hydroxamate derivatives having cyclooxygenase and 5-lipoxygenase inhibition” (Warner-Lambert Company, priority 1988, dated 1992)", "key": {"[1]": {"tested_on": "Mycobacterium-induced rat footpad edema", "test": "Mycobacterium-Induced Rat Footpad Edema Assay (MFE)", "format": "in vivo", "conditions": "PO, one hour before Mycobacterium and Days 1 and 2, swelling at 72 hours, read-out: MFE ID40", "method": "Mycobacterium--Induced Rat Footpad Edema Assay (MFE): Protocol\nMyobacterium butyricum (5 mg/ml) is suspended in paraffin oil by sonication for ten minutes in an ice bath. Footpad edema is induced on Day 0 by injecting 0.1 ml of the Mycobacterium mixture into the left hindpaw of lightly anesthetized rats. Swelling in the injected hindpaw is determined by mercury plethysmography 72 hours after injection. Groups of rats are treated with test compounds (suspended in 0.5% hydroxypropyl methylcellulose with 0.2% Tween-80) or vehicle one hour before Myobacterium injection and on Days 1 and 2. Inhibition of swelling is determined by comparing the change in hindpaw volume in compound- and vehicle-treated rats. […] (the dose at which swelling is inhibited by 40%) was calculated by probit analysis."}, "gastric ulcers in rats": {"tested_on": "gastric ulcers in rats", "test": "Gastric Ulcerogenicity (UD)", "format": "in vivo, rat", "conditions": "@ 200 mg/kg PO, fasted male Wistar rats, six hours", "method": "(§1) Gastric Ulcerogenicity (UD)\n(§2) Male outbred Wistar rats (100-250 gms) were fasted for 24 hours. After fasting, test compounds were administered orally (in 2 ml/kg of 0.5% hydroxypropyl methylcellulose) and the rats were denied access to food and water for six more hours. The rats were then sacrificed with CO2 so that the stomachs could be removed, opened along the greater curvature, and evaluated for the presence of gastric ulcers. Results are expressed as the percent of rats with gastric ulcers at a given dose."}, "5-lipoxygenase": {"biological_target": "T1, 5-lipoxygenase (Rattus norvegicus, UniProt P12527)", "T1 construct": "host or cells: RBL-1 (rat basophilic leukemia)", "T1 sequence (P12527 1-673)": "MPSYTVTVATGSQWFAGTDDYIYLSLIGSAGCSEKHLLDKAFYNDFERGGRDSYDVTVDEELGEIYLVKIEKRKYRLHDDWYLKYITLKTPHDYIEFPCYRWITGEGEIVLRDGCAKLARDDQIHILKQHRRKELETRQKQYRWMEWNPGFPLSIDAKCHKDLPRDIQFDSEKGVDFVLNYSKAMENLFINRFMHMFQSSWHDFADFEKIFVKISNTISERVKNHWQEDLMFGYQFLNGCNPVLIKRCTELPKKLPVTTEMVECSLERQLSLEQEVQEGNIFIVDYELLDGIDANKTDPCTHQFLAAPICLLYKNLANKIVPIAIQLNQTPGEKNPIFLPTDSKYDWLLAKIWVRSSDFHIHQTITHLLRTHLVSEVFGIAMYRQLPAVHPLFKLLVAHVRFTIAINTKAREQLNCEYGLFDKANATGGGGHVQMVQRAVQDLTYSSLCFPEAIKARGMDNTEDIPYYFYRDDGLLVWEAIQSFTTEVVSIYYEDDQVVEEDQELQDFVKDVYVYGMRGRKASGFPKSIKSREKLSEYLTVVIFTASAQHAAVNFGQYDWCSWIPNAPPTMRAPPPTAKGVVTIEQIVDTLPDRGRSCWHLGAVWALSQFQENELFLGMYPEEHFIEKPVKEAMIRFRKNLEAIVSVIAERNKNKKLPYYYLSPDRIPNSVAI", "test": "ARBL whole cell 5-lipoxygenase assay (LTB4 formation in RBL-1 cells)", "format": "cell-based", "conditions": "RBL-1 whole cells; for IC50: A23187 5 μM, read-out: ARBL IC50 for LTB4 inhibition", "method": "(§3) ARBL/ARBC Whole Cell 5-Lipoxygenase and Cyclooxygenase Assays\n(§4) The rat basophilic leukemia cell line (RBL-1) was obtained from the American Type Culture Collection (Rockville, Md.).\n(§5) Radioimmuno assay (RIA) kits of LTB4 and PGF2.sbsb.α were obtained from Amersham (Arlington Heiqhts, Ill.) and Seragen (Boston, Mass.) respectively.\n(§6) All tissue culture media were obtained from GIBCO (Grand Island, N.Y.).\n(§7) RBL-1 cells are grown in suspension culture in Eagle's minimum essential medium supplemented with 12% fetal bovine serum at 37° C. in an incubator supplied with air-5% carbon dioxide. Cells are harvested by centrifugation. They are washed with cold phosphate buffered saline pH 7.4 (PBS; NaCl, […]; Na2 HPO4, 1.15 g; KH2 PO4, 0.2 g; and KCl, 0.2 g/l). Cells are finally suspended in PBS containing 1.0 mM calcium at a density of 2×10^6 cells/ml. Cells are incubated with and without test agent (in DMSO) (1% DMSO is without effect on arachidonic acid metabolism) for ten minutes at room temperature. Calcium ionophore A23187 (5 μM) is added and cells are incubated for seven minutes at 37° C. The reaction is stopped by chilling the tubes on ice for ten minutes. Cells are separated by centrifugation and the supernatant is stored at -20°. Aliquots (100 μl) are analyzed for LTB4 and PGF2.sbsb.α using radioimmuno assay kits as provided by the supplier."}, "[2]": {"tested_on": "carrageenan-induced rat foot paw edema", "test": "Carrageenan-Induced Rat Foot Paw Edema (CFE-2)", "format": "in vivo", "conditions": "5 h, read-out: CFE-2 ID25", "method": "Carrageenan-Induced Rat Foot Paw Edema2 (CFE2)\nCarrageenan solution (1% w/v) is prepared by dissolving 100 mg carrageenan (Marine Colloidal Div., Springfield, N.J.) in 10 ml of sterile saline (0.9%) solution (Travenol). The solution is vortexed for 30 to 45 minutes. Animals are dosed with compound one hour before carrageenan challenge. Foot paw edema is induced by injecting 0.05 ml of the 1% carrageenan subcutaneously into the plantar portion of the right hind paw of each rat under light anesthesia. Initial foot paw volume is measured immediately following carrageenan challenge using mercury plethysmography (Buxco Electronics). Edema is measured five hours after carrageenan. The difference between the five-hour and the initial paw volume is expressed as delta edema. The delta edema for each test group of animals is used to calculate the percent inhibition of edema achieved by the compound at the test dose compared with the vehicle control group. The ID25 (the dose at which swelling is inhibited by 25%) was calculated by probit analysis for the dose at which a result of 25 percent inhibition occurs."}, "cyclooxygenase": {"biological_target": "T2, cyclooxygenase (Rattus norvegicus, UniProt Q63921)", "T2 construct": "host or cells: RBL-1 (rat basophilic leukemia)", "T2 sequence (Q63921 27-602)": "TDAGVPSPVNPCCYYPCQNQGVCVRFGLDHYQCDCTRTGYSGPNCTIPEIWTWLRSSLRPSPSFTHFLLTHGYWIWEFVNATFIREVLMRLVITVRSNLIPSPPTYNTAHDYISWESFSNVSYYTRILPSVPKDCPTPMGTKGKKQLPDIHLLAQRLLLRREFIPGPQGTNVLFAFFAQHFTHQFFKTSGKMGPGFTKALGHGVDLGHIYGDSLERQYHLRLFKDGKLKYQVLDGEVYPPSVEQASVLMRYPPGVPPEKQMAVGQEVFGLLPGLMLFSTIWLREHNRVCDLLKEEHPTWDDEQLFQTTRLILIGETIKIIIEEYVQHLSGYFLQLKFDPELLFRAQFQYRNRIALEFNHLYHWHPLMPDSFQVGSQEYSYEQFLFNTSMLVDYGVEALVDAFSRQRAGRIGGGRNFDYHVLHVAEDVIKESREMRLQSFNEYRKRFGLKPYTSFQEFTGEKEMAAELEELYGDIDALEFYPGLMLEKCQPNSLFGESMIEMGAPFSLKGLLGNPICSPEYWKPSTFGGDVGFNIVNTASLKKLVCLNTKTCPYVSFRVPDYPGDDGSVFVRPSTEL", "test": "ARBC whole cell cyclooxygenase assay (PGF2α formation in RBL-1 cells)", "format": "cell-based", "conditions": "RBL-1 whole cells; for IC50: A23187 5 μM, read-out: ARBC IC50 for PGF2α inhibition", "method": "as §3, §4, §5, §6\nas §7, with “Cells are finally suspended in PBS containing 1.0 mM calcium at a density of 2×10^6 cells/ml. Cells are incubated with and without test agent (in DMSO) (1% DMSO is without effect on arachidonic acid metabolism) for ten minutes at room temperature.” left out"}, "[3]": {"test": "Gastric Ulcerogenicity (UD)", "format": "in vivo, rat", "conditions": "rat, in vivo; fasted male Wistar rats, PO, six hours; read-out: UD50 (dose which produces a 50% occurrence of ulcers in rats)", "method": "as §1, §2"}, "[4]": {"conditions": "rat, PO, dosed one hour before carrageenan, edema at five hours"}}, "note": "Like-named read-outs stand apart in the source and are kept apart here."}
{"smiles": "Cc1ccc(Cl)c(Nc2ccccc2C(=O)N(O)Cc2ccccc2)c1Cl", "note": "[Example 1, 2-[(2,6-Dichloro-3-methylphenyl)amino]-N-hydroxy-N-phenylmethylbenzamide]", "values": [{"measurement": "ED40", "setting": "[1]", "result": 27, "unit": "mg/kg"}, {"measurement": "UD: percent of rats with gastric ulcers", "setting": "gastric ulcers in rats", "result": "N (N is 0% of rats have ulcers occurring at 200 mg.)"}]}
{"smiles": "Cc1ccc(Cl)c(Nc2ccccc2C(=O)NO)c1Cl", "note": "[Example 2, 2-[(2,6-dichloro-3-methylphenyl)amino]-N-hydroxybenzamide]", "values": [{"measurement": "ED40", "setting": "[1]", "result": 2.5, "unit": "mg/kg"}, {"measurement": "UD: percent of rats with gastric ulcers", "setting": "gastric ulcers in rats", "result": "N (N is 0% of rats have ulcers occurring at 200 mg.)"}, {"measurement": "IC50", "setting": "5-lipoxygenase", "result": 3.9, "unit": "µM"}, {"measurement": "ED25", "setting": "[2]; [4]", "result": 0.2, "unit": "mg/kg"}]}
{"smiles": "Cc1ccc(Cl)c(Nc2ccccc2C(=O)N(C)O)c1Cl", "note": "[Example 3, 2-[(2,6-dichloro-3-methylphenyl)amino]-N-hydroxy-N-methylbenzamide]", "values": [{"measurement": "ED40", "setting": "[1]", "result": 24, "unit": "mg/kg"}, {"measurement": "UD: percent of rats with gastric ulcers", "setting": "gastric ulcers in rats", "result": "N (N is 0% of rats have ulcers occurring at 200 mg.)"}, {"measurement": "IC50", "setting": "5-lipoxygenase", "result": 1.5, "unit": "µM"}, {"measurement": "ED25", "setting": "[2]; [4]", "result": 1.3, "unit": "mg/kg"}]}
{"smiles": "CONC(=O)c1ccccc1Nc1c(Cl)ccc(C)c1Cl", "note": "[Example 4, Ortho-2,6-dichloro-3-methylanilinobenzhydroxamic acid O-methyl ether]", "values": [{"measurement": "IC50", "setting": "5-lipoxygenase", "result": 16, "unit": "µM"}]}
{"smiles": "Cc1cccc(Nc2ccccc2C(=O)NO)c1C", "note": "[Example 9, 2-[(2,3-dimethylphenyl)amino]-N-hydroxybenzamide]", "values": [{"measurement": "IC50", "setting": "5-lipoxygenase", "result": 1.8, "unit": "µM"}, {"measurement": "inhibition at 0.5 µM", "setting": "cyclooxygenase; @ 0.5 μM", "result": 60, "unit": "%"}]}
{"smiles": "O=C(NO)c1ccccc1Nc1c(Cl)cccc1Cl", "note": "[Example 10, 2-[(2,6-dichlorophenyl)amino]-N-hydroxybenzamide]", "values": [{"measurement": "inhibition at 16 µM", "setting": "5-lipoxygenase; @ 16 μM", "result": 88, "unit": "%"}, {"measurement": "inhibition at 16 µM", "setting": "cyclooxygenase; @ 16 μM", "result": 80, "unit": "%"}]}
{"smiles": "Cc1ccc(Cl)c(N2CN(O)C(=O)c3ccccc32)c1Cl", "note": "[Example 35, 1-(2,6-dichloro-3-methylphenyl)-2,3-dihydro-3-hydroxy-4(1H)-quinazolinone]", "values": [{"measurement": "IC50", "setting": "5-lipoxygenase", "result": 3.2, "unit": "µM"}, {"measurement": "IC50", "setting": "cyclooxygenase", "result": 2.2, "unit": "µM"}]}
{"smiles": "Cc1ccc(Cl)c(N2C(=O)C(=NO)c3ccccc32)c1Cl", "note": "[Example 49, 1-(2,6-Dichloro-3-methylphenyl)-lH-indole-2,3-dione-3-oxime]", "values": [{"measurement": "IC50", "setting": "5-lipoxygenase", "result": 6.5, "unit": "µM"}, {"measurement": "IC50", "setting": "cyclooxygenase", "result": 28, "unit": "µM"}]}
{"smiles": "Cc1ccc(Cl)c(Nc2ccccc2C(=O)O)c1Cl", "note": "[Meclomen, reference compound]", "values": [{"measurement": "ED40", "setting": "[1]", "result": 0.39, "unit": "mg/kg"}, {"measurement": "TD50 at 6 h", "setting": "[3]", "result": 36, "unit": "mg/kg"}, {"measurement": "IC50", "setting": "5-lipoxygenase", "result": 24, "unit": "µM"}, {"measurement": "ED25", "setting": "[2]; Rattus norvegicus, po", "result": 8.2, "unit": "mg/kg"}]}
